Values quoted from earlier work, collected in patent US7393545B2, “Lipstatin derivative—soluble fiber tablets” (priority 1999, dated 2008).

How the values were obtained:
[1] = diet-induced obese rats, 27 mg/kg/day
[2] = in vivo
[3] = target: T1, pancreatic lipase (Homo sapiens, UniProt P16233)
T1 sequence (P16233 17-465): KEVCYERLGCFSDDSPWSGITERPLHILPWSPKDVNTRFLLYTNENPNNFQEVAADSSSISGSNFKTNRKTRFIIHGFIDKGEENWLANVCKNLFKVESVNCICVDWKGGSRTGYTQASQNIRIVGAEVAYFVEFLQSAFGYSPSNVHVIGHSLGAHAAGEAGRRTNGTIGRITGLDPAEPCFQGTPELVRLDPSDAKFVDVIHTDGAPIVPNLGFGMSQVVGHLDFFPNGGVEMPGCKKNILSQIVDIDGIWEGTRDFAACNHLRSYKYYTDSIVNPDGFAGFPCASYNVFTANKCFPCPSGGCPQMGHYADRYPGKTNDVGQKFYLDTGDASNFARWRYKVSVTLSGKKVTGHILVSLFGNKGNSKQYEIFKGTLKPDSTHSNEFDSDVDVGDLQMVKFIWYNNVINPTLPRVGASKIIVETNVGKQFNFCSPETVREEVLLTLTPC

[4] = first year of a 2 year study, 228 patients, 3× daily, mildly hypocaloric diet
[5] = placebo-controlled clinical studies, over 5000 obese patients

## CCCCCCCCCCC[C@@H](C[C@@H]1OC(=O)[C@H]1CCCCCC)OC(=O)[C@H](CC(C)C)NC=O [Orlistat, tetrahydrolipostatin]
[1]
  decrease in carcass fat: 54 g
  decrease in liver weight: 13%
  increase in large intestine weight: 38%
  increase in small intestine weight: 27%
  loss of body weight: 65 g
  retroperitoneal (RP) pad weight: decreases
[1]; decreased from 93-94%
  fat absorption: 17-19%
[2]
  fat contained in food whose absorption is prevented: about one third
[4]
  more weight lost than the placebo controlled group: 65%
  share of patients having lost >10% of their bodyweight: ⅓
First year of a two year study, moderately reduced calorie diet
  patients who lost 10% or more body weight compared to placebo and diet alone: 3 times
[5]
  adverse side-effects: no major adverse side-effects
  weight loss: significant weight loss
[3]
  inhibition of pancreatic lipase: potent and selective inhibitor
